The subject of assay [1] is intimal hyperplasia after balloon injury. The note with it: cited from earlier work.
In assay [2] the test system is wound tissue. The note with it: applied to wound tissue; cited from earlier work.
Assay [3] relates to AT2 receptor. Particulars: experimental models tested (rabbit vas deferens; NG-108-15); cited from earlier work.
Assay [4] concerns full thickness dermal wounds. Put plainly: rat model for dermal repair (full thickness dermal wounds). Particulars: 100 μg/d for 5 days. Type of assay: in vivo. As to the method: Female Sprague Dawley rats, 175-200 g, were obtained from Simonsen Laboratories, Gilroy, Calif. On the day of surgery, the rats received intramuscular ketamine/rompum anesthesia prior to preparation for surgery. The rats were shaved and scrubbed with betadine. Two 1.5×1.5 cm full thickness dermal wounds were created on the dorsal surface of the rat. Following excision of the skin, the size of the wound was outlined on a glass slide and the medicament was administered in 100 μl 10% low viscosity carboxymethyl cellulose (Sigma). The test materials were administered in a randomized fashion; all materials were tested at 100 μg/wound. Controls were treated with vehicle only. After administration of the materials, the rats were bandaged and allowed to recover from anesthesia. On days 1-4 after surgery, the rats were treated with an additional 100 μg of peptide formulation. At days 2, 4 ,7 and 9, the area of the skin wounds were measured under methoxyflurane anesthesia (commercially available as Metofane from Pittman-Moore, Mundelein, Ill.). The area of the wound was determined by (1) tracing the wound shape onto graph paper (1×1 mm squares); (2) cutting out the shape; (3) weighing the paper and comparing the weight with a 1.5×1.5 cm paper cutout; and (4) counting the number of squares. In addition, on days 2, 4 and 7, the area of granulation tissue was similarly determined.
As illustrated in FIGS. 1-2, wound closure and the formation of granulation tissue was substantially accelerated relative to the control animals when the test animals were treated with an AT2 agonist. FIG. 1 illustrates the percent of control response in wound closure relative to a vehicle-treated control; FIG. 2 illustrates the percent increase in formation of granulation tissue relative to a vehicle control.

Assay [5] relates to AT2 receptor. Particulars: higher affinity for AT2 than AT1; cited from earlier work.
Setting [6] is: rat dermal wounds, relative to vehicle-treated control.

Read-outs that look alike come from different tables or passages of the source. Non-standard residues stand in square brackets, D forms with d. No end group written: not given here. Phe(4-NH2) = Nc1ccc(C[C@H](N)C(=O)O)cc1

Take `Cc1cc(Cn2cnc3c2C[C@@H](C(=O)O)N(C(=O)C(c2ccccc2)c2ccccc2)C3)ccc1N(C)C` [PD 123319]: in assay [1] (rats, after balloon injury), the “reduction of intimal hyperplasia” value is 73%.

On to `CCCCc1nc(Cl)c(CO)n1Cc1ccc(-c2ccccc2-c2nn[nH]n2)cc1` [losartan], for which the neointimal formation result in assay [1] (other studies, higher doses) is on record as “effective”; in assay [1] (similar model, low doses), “ineffective”. The “decrease of intimal area” value in assay [1] (rats, after balloon injury) is on record as 95%.

On to “Asp-Arg-Val-Tyr-Ile-His-Pro-Phe (DRVYIHPF) [angiotensin II, octapeptide present in humans and other species; known pressor agent]”, for which the “rate of wound healing” value in assay [2] is reported as “significantly increases”.

For the compound “Asp-Arg-Val-Tyr-Ile-Xaa-Pro-Phe [SEQ ID NO:2] wherein Xaa is p-NH2-Phe (DRVYI[Phe(4-NH2)]PF) [p-aminophenylalanine6-AII]”, the binding characteristics result in assay [3] is “comparable to the AT2 antagonists”. Further, in assay [4] (setting [6]), the granulation tissue formation entry was “accelerated” and the wound closure result is “accelerated”. Also, in assay [4] (rat), the “results in dermal repair compared with AII” value is reported as “comparable to AII”. The “affinity for AT2 relative to AT1” value in assay [5] is 1000 ×.

Consider CGP 42112, for which the neointimal formation result in assay [1] (similar model, infused perivascularly for 14 days) is given as “prevented neointimal formation”.
